Results taken from ChEMBL document CHEMBL5370624 (J Med Chem, 2023).
The source made the active and inactive calls. The calls are words filed in the database; no cut-off is given here.

How the values were obtained:
[1] = Aqueous stability of the compound assessed as drug degradation at 40 degreeC and measured upto 12 months by LC-MS analysis; type: physicochemical
[2] = target: T1, Toll-like receptor 4 (Mus musculus, UniProt Q9QUK6); assay: Agonist activity at mouse TLR4 in human HEK-Blue mTLR4 cells assessed as NF-kappaB activation incubated for 48 hrs by SEAP reporter gene based Quanti-blue assay; type: cell-based
T1 sequence (Q9QUK6 whole entry): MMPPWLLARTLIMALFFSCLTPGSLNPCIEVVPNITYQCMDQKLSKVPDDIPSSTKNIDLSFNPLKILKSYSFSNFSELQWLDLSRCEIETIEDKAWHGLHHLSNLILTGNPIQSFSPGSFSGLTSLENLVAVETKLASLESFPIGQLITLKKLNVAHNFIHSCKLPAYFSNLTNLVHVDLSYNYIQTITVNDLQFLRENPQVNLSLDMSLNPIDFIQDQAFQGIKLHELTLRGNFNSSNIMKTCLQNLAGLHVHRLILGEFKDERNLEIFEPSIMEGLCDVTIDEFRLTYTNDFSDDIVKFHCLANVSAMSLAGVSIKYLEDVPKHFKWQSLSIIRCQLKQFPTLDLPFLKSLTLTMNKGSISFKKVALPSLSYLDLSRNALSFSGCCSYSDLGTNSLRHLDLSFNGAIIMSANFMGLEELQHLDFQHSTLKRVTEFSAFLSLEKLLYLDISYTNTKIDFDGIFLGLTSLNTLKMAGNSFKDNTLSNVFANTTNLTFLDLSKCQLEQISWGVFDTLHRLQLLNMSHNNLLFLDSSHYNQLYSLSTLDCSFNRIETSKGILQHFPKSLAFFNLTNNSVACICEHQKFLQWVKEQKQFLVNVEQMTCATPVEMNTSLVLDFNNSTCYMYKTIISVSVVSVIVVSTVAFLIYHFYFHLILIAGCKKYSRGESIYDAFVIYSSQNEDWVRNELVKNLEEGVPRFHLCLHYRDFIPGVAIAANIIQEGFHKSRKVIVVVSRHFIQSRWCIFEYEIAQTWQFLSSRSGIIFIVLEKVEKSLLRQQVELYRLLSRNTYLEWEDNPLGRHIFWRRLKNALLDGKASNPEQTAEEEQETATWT

[3] = organism: Mus musculus; assay: Immuno-adjuvant activity in H3N2-split A/Victoria/210/2009 influenza virus-immunized BALB/c mouse model assessed as increase in influenza specific serum IgG titer level at 0.001 to 0.1 ug,IM and measured after 14 days by ELISA; type: functional, organism-based; conditions: dose 0.001-0.1 µg, time 14.0 day
[4] = target: T2, Toll-like receptor 4 (Homo sapiens, UniProt O00206); assay: Agonist activity at TLR4 in human PBMC cells assessed as induction of MIP-1beta release incubated for 20 hrs by ELISA; type: cell-based
[5] = Aqueous stability of the compound assessed as drug degradation at 2 to 8 degreeC and measured upto 12 months by LC-MS analysis; type: physicochemical; conditions: buffer, 8760 h
[6] = organism: Mus musculus; assay: Immuno-adjuvant activity in H3N2-split A/Victoria/210/2009 influenza virus-immunized BALB/c mouse model assessed as increase in influenza specific serum IgG2a titer level at 0.001 to 0.1 ug,IM and measured after 14 days by ELISA; type: functional, organism-based; conditions: dose 0.001-0.1 µg, time 14.0 day
[7] = target: T2, Toll-like receptor 4; assay: Agonist activity at TLR4 in human PBMC cells assessed as induction of IL-1beta release incubated for 20 hrs by ELISA; type: cell-based
[8] = target: T2, Toll-like receptor 4; assay: Agonist activity at human TLR4 in human HEK-Blue hTLR4 cells assessed as NF-kappaB activation incubated for 48 hrs by SEAP reporter gene based Quanti-blue assay; type: cell-based
[9] = test system: Mus musculus; assay: Immuno-adjuvant activity in H3N2-split A/Victoria/210/2009 influenza virus-immunized BALB/c mouse model assessed as increase in influenza specific serum IgG titer level at 0.001 to 0.1 ug,IM administered on day 0 and 14 and measured after 28 days by ELISA; type: functional, organism-based; conditions: dose 0.001-0.1 µg, time 28.0 day
[10] = organism: Mus musculus; assay: Immuno-adjuvant activity in H3N2-split A/Victoria/210/2009 influenza virus-immunized BALB/c mouse model assessed as increase in influenza specific serum IgG1 titer level at 0.001 to 0.1 ug,IM and measured after 14 days by ELISA; type: functional, organism-based; conditions: dose 0.001-0.1 µg, time 14.0 day
[11] = Toxicity in H3N2-split A/Victoria/210/2009 influenza virus-immunized BALB/c mouse model assessed as reactogenicity at 0.001 to 0.1 ug,IM administered on day 0 and 14 and measured after 28 days; conditions: in vivo, 672 h, dose 0.001-0.1 µg, time 28 day
[12] = Toxicity in H3N2-split A/Victoria/210/2009 influenza virus-immunized BALB/c mouse model assessed as abnormality at 0.001 to 0.1 ug,IM administered on day 0 and 14 and measured after 28 days; conditions: in vivo, 672 h, dose 0.001-0.1 µg, time 28 day
[13] = target: T2, Toll-like receptor 4; assay: Agonist activity at TLR4 in human PBMC cells assessed as induction of TNFalpha release incubated for 20 hrs by ELISA; type: cell-based
[14] = target: T1, Toll-like receptor 4; assay: Agonist activity at TLR4 in mouse RAW264.7 cells assessed as induction of MIP-1beta release incubated for 24 hrs by ELISA; type: cell-based
[15] = Aqueous stability of the compound assessed as drug degradation at 40 degreeC and measured after 12 months by RP-HPLC analysis; type: physicochemical; conditions: aqueous solution, read-out: Drug degradation
[16] = target: T2, Toll-like receptor 4; assay: Agonist activity at TLR4 in human MONO-MAC-6 cells assessed as induction of MIP-1beta release incubated for 24 hrs by ELISA; type: cell-based
[17] = test system: Mus musculus; assay: Immuno-adjuvant activity in H3N2-split A/Victoria/210/2009 influenza virus-immunized BALB/c mouse model assessed as increase in influenza specific serum IgG1 titer level at 0.001 to 0.1 ug,IM administered on day 0 and 14 and measured after 28 days by ELISA; type: functional, organism-based; conditions: dose 0.001-0.1 µg, time 28.0 day
[18] = test system: Mus musculus; assay: Immuno-adjuvant activity in H3N2-split A/Victoria/210/2009 influenza virus-immunized BALB/c mouse model assessed as increase in influenza specific serum IgG2a titer level at 0.001 to 0.1 ug,IM administered on day 0 and 14 and measured after 28 days by ELISA; type: functional, organism-based; conditions: dose 0.001-0.1 µg, time 28.0 day
[19] = Aqueous stability of the compound assessed as drug degradation at 2 to 8 degreeC and measured upto 12 months by RP-HPLC analysis; type: physicochemical; conditions: buffer, 8760 h
[20] = target: T2, Toll-like receptor 4; assay: Agonist activity at TLR4 in human PBMC cells assessed as induction of RANTES release incubated for 20 hrs by ELISA; type: cell-based
[21] = test system: Mus musculus; assay: Immuno-adjuvant activity in H3N2-A/HK/68 influenza virus-immunized BALB/c mouse model assessed as increase in survival rate at 10 ug,INH administered 48hrs prior to influenza challenge and measured after 18 days; type: functional; conditions: dose 10 µg, time 18 day
[22] = Toxicity in H3N2-A/HK/68 influenza virus-immunized BALB/c mouse model assessed as disease index at 1 to 10 ug,INH administered 48hrs prior to influenza challenge and measured after 18 days; conditions: in vivo, inhaled_or_intranasal, 432 h, dose 1-10 µg, time 18 day
[23] = Toxicity in H3N2-A/HK/68 influenza virus-immunized BALB/c mouse model assessed as change in body temperature at 1 to 10 ug,INH administered 48hrs prior to influenza challenge and measured after 18 days; conditions: in vivo, inhaled_or_intranasal, 432 h, dose 1-10 µg, time 18 day
[24] = Toxicity in H3N2-A/HK/68 influenza virus-immunized BALB/c mouse model assessed as body weight change at 1 to 10 ug,INH administered 48hrs prior to influenza challenge and measured after 18 days; conditions: in vivo, inhaled_or_intranasal, 432 h, dose 1-10 µg, time 18 day
[25] = test system: PBMC; assay: Cytotoxicity against human PBMC cells assessed as reduction in cell viability upto 10 ug/ml incubated for 18 to 24 hrs by PrestoBlue reagent based assay; type: toxicity; conditions: time 18-24 hrs, dose < 10 µg/ml
[26] = test system: Mus musculus; assay: Immuno-adjuvant activity in H3N2-A/HK/68 influenza virus-immunized BALB/c mouse model assessed as increase in survival rate at 1 ug,INH administered 48hrs prior to influenza challenge and measured after 18 days; type: functional; conditions: dose 1 µg, time 18 day

T2 sequence (O00206 whole entry): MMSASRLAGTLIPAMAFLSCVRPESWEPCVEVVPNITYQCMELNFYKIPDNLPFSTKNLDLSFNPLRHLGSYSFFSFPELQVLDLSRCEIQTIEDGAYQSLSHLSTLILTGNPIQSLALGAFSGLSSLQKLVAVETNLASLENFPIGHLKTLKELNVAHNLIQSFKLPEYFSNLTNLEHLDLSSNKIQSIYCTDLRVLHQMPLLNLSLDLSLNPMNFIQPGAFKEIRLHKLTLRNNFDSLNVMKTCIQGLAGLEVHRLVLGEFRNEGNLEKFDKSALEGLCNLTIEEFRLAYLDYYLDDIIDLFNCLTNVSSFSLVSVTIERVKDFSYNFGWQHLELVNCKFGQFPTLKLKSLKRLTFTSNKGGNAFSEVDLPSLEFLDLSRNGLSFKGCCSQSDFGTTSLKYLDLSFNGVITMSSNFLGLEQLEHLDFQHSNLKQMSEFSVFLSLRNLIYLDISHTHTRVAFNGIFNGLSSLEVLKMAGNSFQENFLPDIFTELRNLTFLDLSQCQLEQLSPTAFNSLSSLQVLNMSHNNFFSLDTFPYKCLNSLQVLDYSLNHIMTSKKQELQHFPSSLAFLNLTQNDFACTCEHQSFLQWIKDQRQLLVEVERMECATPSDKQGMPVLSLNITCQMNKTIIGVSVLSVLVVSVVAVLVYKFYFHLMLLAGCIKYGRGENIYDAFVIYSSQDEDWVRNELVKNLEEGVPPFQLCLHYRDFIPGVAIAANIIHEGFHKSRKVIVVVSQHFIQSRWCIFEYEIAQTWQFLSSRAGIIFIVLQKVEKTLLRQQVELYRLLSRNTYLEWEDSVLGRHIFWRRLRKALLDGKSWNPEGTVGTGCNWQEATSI

Row | SMILES | EC50 [2] [nM] | Activity [3] | EC50 [4] [nM] | Stability [5] | Activity [6] | EC50 [7] [nM] | EC50 [8] [nM] | Activity [9] | Activity [10] | Activity [11] | Activity [12] | EC50 [13] [nM] | EC50 [14] [nM] | EC50 [16] [nM] | Activity [17] | Activity [18] | Stability [19] | EC50 [20] [nM] | Activity [25] | also measured
1 | CCCCCCCCCCC[C@H](CC(=O)NCCO[C@@H]1O[C@H](CO)[C@@H](OS(=O)(=O)O)[C@@H](NC(=O)C[C@@H](CCCCCCCCCCC)OC(=O)CCCCCCCCC)[C@H]1NC(=O)C[C@@H](CCCCCCCCCCC)OC(=O)CCCCCCCCC)OC(=O)CCCCCCCCC.CCN(CC)CC | 2.64 | Dose-Dependent Effect | 2.87 | Stable | Dose-Dependent Effect | 20.4 | 449 | Active | Dose-Dependent Effect | Non-Toxic | Non-Toxic | 116 | 0.31 | 39.5 | Active | Active | Stable | 7.01 |  | degraded at 8760 h ([1]; aqueous solution, read-out: Drug degradation): 8%; degraded at 8760 h [15]: < 10%
2 | CCCCCCCCCCCCCC(=O)O[C@H](CCCCCCCCCCC)CC(=O)O[C@@H]1[C@@H](NC(=O)C[C@H](CCCCCCCCCCC)OC(=O)CCCCCCCCCCCCC)[C@H](OC[C@H]2O[C@H](O)[C@H](NC(=O)C[C@H](O)CCCCCCCCCCC)[C@@H](OC(=O)C[C@H](O)CCCCCCCCCCC)[C@@H]2O)O[C@H](CO)[C@H]1OP(=O)(O)O | 1.4 |  | 0.76 |  |  | 2.11 | 6.23 |  |  |  |  | 10.4 | 0.49 | 0.99 |  |  |  | 1.92 |  | 
3 | CCCCCCCCCCC[C@H](CC(=O)N[C@H]1[C@H](OC[C@H](NC(=O)C[C@@H](CCCCCCCCCCC)OCCCCCCCCCC)C(=O)O)O[C@H](CO)[C@@H](OP(=O)(O)O)[C@H]1NC(=O)C[C@@H](CCCCCCCCCCC)OCCCCCCCCCC)OCCCCCCCCCC.CCN(CC)CC | 0.15 | Dose-Dependent Effect | 0.13 | Stable | Dose-Dependent Effect | 0.28 | 7.86 | Active | Dose-Dependent Effect | Non-Toxic | Non-Toxic | 2.6 | 0.02 | 0.38 | Active | Active | Stable | 0.14 | Non-Toxic | Stability ([1]; buffer, 8760 h): Stable; Survival [21]: 80%; Activity [22]: Non-Toxic; Activity [23]: Non-Toxic; Activity [24]: Non-Toxic; Survival [26]: 40%
4 | CCCCCCCCCCC[C@H](CC(=O)N[C@H]1[C@H](OC[C@H](NC(=O)C[C@@H](CCCCCCCCCCC)OC(=O)CCCCCCCCC)C(=O)O)O[C@H](CO)[C@@H](OP(=O)(O)O)[C@@H]1OC(=O)C[C@@H](CCCCCCCCCCC)OC(=O)CCCCCCCCC)OC(=O)CCCCCCCCC |  |  |  |  |  |  |  |  |  |  |  |  |  |  |  |  |  |  | Non-Toxic | 
